{"source": "ChEMBL document CHEMBL1201862", "about": "“PubChem BioAssay data set” (2004)", "assay_in_all_cases": "growth of human tumour cells (NCI), 48 h", "key": {"ACHN": {"tested_on": "ACHN"}, "MDA-N": {"tested_on": "MDA-N"}, "PC-3": {"tested_on": "PC-3"}, "SK-MEL-5": {"tested_on": "SK-MEL-5"}, "U-251": {"tested_on": "U-251"}, "OVCAR-4": {"tested_on": "OVCAR-4"}, "786-0": {"tested_on": "786-0"}, "SNB-19": {"tested_on": "SNB-19"}, "SF-268": {"tested_on": "SF-268"}, "A549": {"tested_on": "A549"}, "OVCAR-5": {"tested_on": "OVCAR-5"}, "KM12": {"tested_on": "KM12"}, "DU-145": {"tested_on": "DU-145"}, "SK-OV-3": {"tested_on": "SK-OV-3"}, "Hs-578T": {"tested_on": "Hs-578T"}, "CAKI-1": {"tested_on": "CAKI-1"}, "NCI-H226": {"tested_on": "NCI-H226"}, "CCRF-CEM": {"tested_on": "CCRF-CEM"}, "TK-10": {"tested_on": "TK-10"}, "MDA-MB-435": {"tested_on": "MDA-MB-435"}}, "note": "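Growth conditions: 96-well plates. Treatment: test compound, 48 hours, 5 concentrations. Analysis: linear interpolation between bracketing concentrations; unreached endpoints set to highest concentration. GI50 = concentration required for 50% inhibition of growth.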 Calls of active or inactive are those of the source. No stated cut-off is given here; in the data, active = GI50 up to about 1.1 µM and inactive = higher.", "data": [{"smiles": "CCOC(=O)CC(c1ccccc1)C(C)(C(=O)OCC)C(=O)OCC", "note": "(stereo unspecified)", "values": [{"measurement": "GI50", "setting": "ACHN", "result": "> 100 µM (inactive)"}, {"measurement": "GI50", "setting": "MDA-N", "result": "> 10 µM (inactive)"}, {"measurement": "GI50", "setting": "PC-3", "result": "77.6 µM (inactive)"}, {"measurement": "GI50", "setting": "SK-MEL-5", "result": "> 100 µM (inactive)"}, {"measurement": "GI50", "setting": "U-251", "result": "> 100 µM (inactive)"}, {"measurement": "GI50", "setting": "OVCAR-4", "result": "> 100 µM (inactive)"}, {"measurement": "GI50", "setting": "786-0", "result": "> 100 µM (inactive)"}, {"measurement": "GI50", "setting": "SNB-19", "result": "> 100 µM (inactive)"}, {"measurement": "GI50", "setting": "SF-268", "result": "> 100 µM (inactive)"}, {"measurement": "GI50", "setting": "A549", "result": "> 100 µM (inactive)"}, {"measurement": "GI50", "setting": "OVCAR-5", "result": "> 100 µM (inactive)"}, {"measurement": "GI50", "setting": "KM12", "result": "> 100 µM (inactive)"}, {"measurement": "GI50", "setting": "DU-145", "result": "> 100 µM (inactive)"}, {"measurement": "GI50", "setting": "SK-OV-3", "result": "> 100 µM (inactive)"}, {"measurement": "GI50", "setting": "Hs-578T", "result": "> 100 µM (inactive)"}, {"measurement": "GI50", "setting": "CAKI-1", "result": "> 100 µM (inactive)"}, {"measurement": "GI50", "setting": "NCI-H226", "result": "> 100 µM (inactive)"}, {"measurement": "GI50", "setting": "CCRF-CEM", "result": "> 100 µM (inactive)"}, {"measurement": "GI50", "setting": "TK-10", "result": "> 100 µM (inactive)"}]}, {"smiles": "CC1(C)OC(CCO)CN1C(=O)OCc1ccccc1", "note": "(stereo unspecified)", "values": [{"measurement": "GI50", "setting": "ACHN", "result": "> 100 µM (inactive)"}, {"measurement": "GI50", "setting": "MDA-N", "result": "> 100 µM (inactive)"}, {"measurement": "GI50", "setting": "PC-3", "result": "> 100 µM (inactive)"}, {"measurement": "GI50", "setting": "SK-MEL-5", "result": "> 100 µM (inactive)"}, {"measurement": "GI50", "setting": "U-251", "result": "> 100 µM (inactive)"}, {"measurement": "GI50", "setting": "OVCAR-4", "result": "> 100 µM (inactive)"}, {"measurement": "GI50", "setting": "786-0", "result": "> 100 µM (inactive)"}, {"measurement": "GI50", "setting": "SNB-19", "result": "> 100 µM (inactive)"}, {"measurement": "GI50", "setting": "A549", "result": "> 100 µM (inactive)"}, {"measurement": "GI50", "setting": "MDA-MB-435", "result": "> 100 µM (inactive)"}, {"measurement": "GI50", "setting": "OVCAR-5", "result": "> 100 µM (inactive)"}, {"measurement": "GI50", "setting": "KM12", "result": "> 100 µM (inactive)"}, {"measurement": "GI50", "setting": "DU-145", "result": "> 100 µM (inactive)"}, {"measurement": "GI50", "setting": "SK-OV-3", "result": "> 100 µM (inactive)"}, {"measurement": "GI50", "setting": "CAKI-1", "result": "> 100 µM (inactive)"}, {"measurement": "GI50", "setting": "NCI-H226", "result": "> 100 µM (inactive)"}, {"measurement": "GI50", "setting": "CCRF-CEM", "result": "> 100 µM (inactive)"}, {"measurement": "GI50", "setting": "TK-10", "result": "> 100 µM (inactive)"}]}, {"smiles": "COc1ccc(/N=[N+](\\[O-])c2ccc(OC)cc2)cc1", "values": [{"measurement": "GI50", "setting": "ACHN", "result": "> 100 µM (inactive)"}, {"measurement": "GI50", "setting": "MDA-N", "result": "> 100 µM (inactive)"}, {"measurement": "GI50", "setting": "PC-3", "result": "> 100 µM (inactive)"}, {"measurement": "GI50", "setting": "SK-MEL-5", "result": "> 100 µM (inactive)"}, {"measurement": "GI50", "setting": "U-251", "result": "> 100 µM (inactive)"}, {"measurement": "GI50", "setting": "OVCAR-4", "result": "> 100 µM (inactive)"}, {"measurement": "GI50", "setting": "786-0", "result": "> 100 µM (inactive)"}, {"measurement": "GI50", "setting": "SNB-19", "result": "> 100 µM (inactive)"}, {"measurement": "GI50", "setting": "SF-268", "result": "> 100 µM (inactive)"}, {"measurement": "GI50", "setting": "A549", "result": "> 100 µM (inactive)"}, {"measurement": "GI50", "setting": "MDA-MB-435", "result": "> 100 µM (inactive)"}, {"measurement": "GI50", "setting": "OVCAR-5", "result": "> 100 µM (inactive)"}, {"measurement": "GI50", "setting": "KM12", "result": "> 100 µM (inactive)"}, {"measurement": "GI50", "setting": "DU-145", "result": "> 100 µM (inactive)"}, {"measurement": "GI50", "setting": "SK-OV-3", "result": "> 100 µM (inactive)"}, {"measurement": "GI50", "setting": "Hs-578T", "result": "> 100 µM (inactive)"}, {"measurement": "GI50", "setting": "CAKI-1", "result": "> 100 µM (inactive)"}, {"measurement": "GI50", "setting": "TK-10", "result": "> 100 µM (inactive)"}]}, {"smiles": "CN(C)c1ccc(-c2c(C#N)c(O)n(NS(=O)(=O)c3ccccc3)c(=O)c2C#N)cc1", "values": [{"measurement": "GI50", "setting": "ACHN", "result": "> 100 µM (inactive)"}, {"measurement": "GI50", "setting": "MDA-N", "result": "> 100 µM (inactive)"}, {"measurement": "GI50", "setting": "PC-3", "result": "> 100 µM (inactive)"}, {"measurement": "GI50", "setting": "SK-MEL-5", "result": "> 100 µM (inactive)"}, {"measurement": "GI50", "setting": "U-251", "result": "> 100 µM (inactive)"}, {"measurement": "GI50", "setting": "OVCAR-4", "result": "> 100 µM (inactive)"}, {"measurement": "GI50", "setting": "786-0", "result": "> 100 µM (inactive)"}, {"measurement": "GI50", "setting": "SNB-19", "result": "> 100 µM (inactive)"}, {"measurement": "GI50", "setting": "SF-268", "result": "> 100 µM (inactive)"}, {"measurement": "GI50", "setting": "A549", "result": "> 100 µM (inactive)"}, {"measurement": "GI50", "setting": "MDA-MB-435", "result": "> 100 µM (inactive)"}, {"measurement": "GI50", "setting": "OVCAR-5", "result": "0.912 µM (active)"}, {"measurement": "GI50", "setting": "KM12", "result": "> 100 µM (inactive)"}, {"measurement": "GI50", "setting": "SK-OV-3", "result": "0.377 µM (active)"}, {"measurement": "GI50", "setting": "Hs-578T", "result": "> 100 µM (inactive)"}, {"measurement": "GI50", "setting": "CAKI-1", "result": "> 100 µM (inactive)"}, {"measurement": "GI50", "setting": "NCI-H226", "result": "> 100 µM (inactive)"}, {"measurement": "GI50", "setting": "CCRF-CEM", "result": "> 100 µM (inactive)"}, {"measurement": "GI50", "setting": "TK-10", "result": "> 100 µM (inactive)"}]}, {"smiles": "CCN(CC)CCCNC(=O)c1cc2cc(NC(=O)c3cc4cc([N+](=O)[O-])ccc4[nH]3)ccc2[nH]1", "values": [{"measurement": "GI50", "setting": "ACHN", "result": "> 100 µM (inactive)"}, {"measurement": "GI50", "setting": "MDA-N", "result": "70.1 µM (inactive)"}, {"measurement": "GI50", "setting": "PC-3", "result": "> 100 µM (inactive)"}, {"measurement": "GI50", "setting": "SK-MEL-5", "result": "> 100 µM (inactive)"}, {"measurement": "GI50", "setting": "U-251", "result": "> 10 µM (inactive)"}, {"measurement": "GI50", "setting": "OVCAR-4", "result": "> 100 µM (inactive)"}, {"measurement": "GI50", "setting": "786-0", "result": "40.8 µM (inactive)"}, {"measurement": "GI50", "setting": "SNB-19", "result": "> 100 µM (inactive)"}, {"measurement": "GI50", "setting": "SF-268", "result": "> 100 µM (inactive)"}, {"measurement": "GI50", "setting": "A549", "result": "> 100 µM (inactive)"}, {"measurement": "GI50", "setting": "MDA-MB-435", "result": "51.1 µM (inactive)"}, {"measurement": "GI50", "setting": "OVCAR-5", "result": "> 100 µM (inactive)"}, {"measurement": "GI50", "setting": "KM12", "result": "7.21 µM (inactive)"}, {"measurement": "GI50", "setting": "DU-145", "result": "> 100 µM (inactive)"}, {"measurement": "GI50", "setting": "SK-OV-3", "result": "> 100 µM (inactive)"}, {"measurement": "GI50", "setting": "CAKI-1", "result": "> 100 µM (inactive)"}, {"measurement": "GI50", "setting": "NCI-H226", "result": "> 100 µM (inactive)"}, {"measurement": "GI50", "setting": "TK-10", "result": "> 100 µM (inactive)"}]}, {"smiles": "CC1=C2CC(C)(C)CC(=O)C2(C)CCC1=O", "note": "(stereo unspecified)", "values": [{"measurement": "GI50", "setting": "ACHN", "result": "> 100 µM (inactive)"}, {"measurement": "GI50", "setting": "MDA-N", "result": "> 100 µM (inactive)"}, {"measurement": "GI50", "setting": "PC-3", "result": "> 100 µM (inactive)"}, {"measurement": "GI50", "setting": "SK-MEL-5", "result": "> 100 µM (inactive)"}, {"measurement": "GI50", "setting": "U-251", "result": "> 100 µM (inactive)"}, {"measurement": "GI50", "setting": "OVCAR-4", "result": "> 100 µM (inactive)"}, {"measurement": "GI50", "setting": "786-0", "result": "> 100 µM (inactive)"}, {"measurement": "GI50", "setting": "SNB-19", "result": "> 100 µM (inactive)"}, {"measurement": "GI50", "setting": "SF-268", "result": "> 100 µM (inactive)"}, {"measurement": "GI50", "setting": "A549", "result": "> 100 µM (inactive)"}, {"measurement": "GI50", "setting": "OVCAR-5", "result": "> 100 µM (inactive)"}, {"measurement": "GI50", "setting": "KM12", "result": "> 100 µM (inactive)"}, {"measurement": "GI50", "setting": "DU-145", "result": "> 100 µM (inactive)"}, {"measurement": "GI50", "setting": "SK-OV-3", "result": "> 100 µM (inactive)"}, {"measurement": "GI50", "setting": "Hs-578T", "result": "> 100 µM (inactive)"}, {"measurement": "GI50", "setting": "CAKI-1", "result": "> 100 µM (inactive)"}, {"measurement": "GI50", "setting": "NCI-H226", "result": "> 100 µM (inactive)"}, {"measurement": "GI50", "setting": "CCRF-CEM", "result": "> 100 µM (inactive)"}, {"measurement": "GI50", "setting": "TK-10", "result": "> 100 µM (inactive)"}]}]}
